Data as given in patent US20140155406A1, “4-IMIDAZOPYRIDAZIN-1-YL-BENZAMIDES AND 4-IMIDAZOTRIAZIN-1-YL-BENZAMIDES BTK INHIBITORS” (priority 2011, published 2014).

Experiments:
Assay type in all cases: biochemical
[1] = biological target: T1, Lck enzyme (Homo sapiens, UniProt P06239); assay: Lck enzyme activity, IMAP fluorescence polarization assay; details: 60 min pre-incubation, 6 μM ATP (Km)
T1 construct: purchased Millipore 14-442
Description: Lck enzyme activity is measured using the IMAP (immobilized metal ion affinity-based fluorescence polarization) assay as outlined below.
Lck enzyme (Millipore catalog#14-442), is diluted to 0.4 U/mL in KR buffer (10 mM Tris-HCl, 10 mM MgCl2, 0.01% Tween-20, 0.05% NaN3, 1 mM DTT, 2 mM MnCl2, pH 7.2). Serial dilution log 10 from 2 mM to 63.2 nM of test compounds are made in 100% DMSO. The dilutions in DMSO are then diluted 50-fold in KR-buffer of which 5 μl is used in the assay, leading to a final compound concentration range in the assay from 10 μM to 0.316 nM. 5 μL/well of test compound in KR buffer (final DMSO concentration in the assay is 1%) is mixed with 5 μl/well of 0.4 U/mL Lck enzyme (final concentration in the assay is 0.1 U/mL). Test compounds and Lck enzyme are pre-incubated 60 minutes at room temperature, before adding 5 μL/well of 400 nM Fluorescin labeled substrate peptide (p34cdc2 substrate peptide, e.g. #R7157/#R7172, Molecular Devices) in KR-buffer. Final peptide substrate concentration in assay is 100 nM. The kinase assay is started by adding 5 μL/well of 24 μM ATP in KR-buffer (final ATP concentration is 6 μM ATP, Km ATP in Lck IMAP assay). Following incubation for 2 h at room temperature the enzyme reaction is stopped by adding 40 μL/well IMAP Progressive Binding Solution (according to suppliers (Molecular Devices) protocol using 75% 1× buffer A and 25% 1× buffer B with 1:600 Progressive Binding Solution). After 60 min incubation at room temperature in the dark the FP signal is read. Fluorescence at 535 nm is measured using parallel and perpendicular filters to determine differences in rotation due to binding of the phosphorylated substrate peptide to the beads. Values are calculated as percentage of the difference in readout (ΔmPi) of the controls with and without ATP. EC50 values are determined by curve fitting of the experimental results using Activity Base.

[2] = biological target: T2, FynT enzyme (Homo sapiens, UniProt P06241); assay: FynT enzyme activity, IMAP fluorescence polarization assay; details: 60 min pre-incubation, 0.2 μM ATP (Km)
T2 construct: purchased Biomol SE-287
T2 sequence (P06241 1-534 isoform P06241-2): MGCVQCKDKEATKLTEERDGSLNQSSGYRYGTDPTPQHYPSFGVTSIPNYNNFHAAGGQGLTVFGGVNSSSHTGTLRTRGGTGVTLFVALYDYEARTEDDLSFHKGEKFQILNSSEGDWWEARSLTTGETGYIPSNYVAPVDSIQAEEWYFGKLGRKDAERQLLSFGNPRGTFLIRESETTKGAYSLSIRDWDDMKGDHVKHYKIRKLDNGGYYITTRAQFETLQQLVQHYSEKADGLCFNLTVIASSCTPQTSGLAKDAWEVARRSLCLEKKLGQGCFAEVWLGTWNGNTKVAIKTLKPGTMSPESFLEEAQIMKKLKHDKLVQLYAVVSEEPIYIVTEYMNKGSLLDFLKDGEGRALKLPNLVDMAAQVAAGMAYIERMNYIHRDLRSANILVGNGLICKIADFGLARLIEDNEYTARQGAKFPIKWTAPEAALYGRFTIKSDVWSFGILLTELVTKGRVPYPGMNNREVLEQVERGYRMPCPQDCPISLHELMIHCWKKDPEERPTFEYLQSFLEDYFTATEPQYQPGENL
Description: FynT enzyme activity is measured using the IMAP (immobilized metal ion affinity-based fluorescence polarization) assay as outlined below.
FynT enzyme (Biomol catalog# SE-287), is diluted to 0.5 μg/mL in KR buffer (10 mM Tris-HCl, 10 mM MgCl2, 0.01% Tween-20, 0.05% NaN3, 1 mM DTT, 2 mM MnCl2, pH 7.2). Serial dilution log 10 from 2 mM to 63.2 nM of test compounds are made in 100% DMSO. The dilutions in DMSO are then diluted 50-fold in KR-buffer of which 5 μl is used in the assay, leading to a final compound concentration range in the assay from 10 μM to 0.316 nM. 5 μL/well of test compound in KR buffer (final DMSO concentration in the assay is 1%) is mixed with 5 μl/well of 0.5 μg/mL FynT enzyme (final concentration in the assay is 125 ng/mL). Test compounds and FynT enzyme are pre-incubated 60 minutes at room temperature, before adding 5 μL/well of 400 nM Fluorescin labeled substrate peptide (p34cdc2 substrate peptide, e.g. #R7157/#R7172, Molecular Devices) in KR-buffer. Final peptide substrate concentration in assay is 100 nM. The kinase assay is started by adding 5 μL/well of 0.8 μM ATP in KR-buffer (final ATP concentration is 0.2 μM ATP, Km ATP in FynT IMAP assay). Following incubation for 2 h at room temperature the enzyme reaction is stopped by adding 40 μL/well IMAP Progressive Binding Solution (according to suppliers (Molecular Devices) protocol using 75% 1× buffer A and 25% 1× buffer B with 1:600 Progressive Binding Solution). After 60 min incubation at room temperature in the dark the FP signal is read. Fluorescence at 535 nm is measured using parallel and perpendicular filters to determine differences in rotation due to binding of the phosphorylated substrate peptide to the beads. Values are calculated as percentage of the difference in readout (ΔmPi) of the controls with and without ATP. EC50 values are determined by curve fitting of the experimental results using Activity Base.

[3] = biological target: T3, Lyn enzyme (Homo sapiens, UniProt P07948); assay: Lyn enzyme activity, IMAP fluorescence polarization assay; details: 60 min pre-incubation, 2 μM ATP (Km)
T3 construct: purchased Millipore 14-510
T3 sequence (P07948 whole entry): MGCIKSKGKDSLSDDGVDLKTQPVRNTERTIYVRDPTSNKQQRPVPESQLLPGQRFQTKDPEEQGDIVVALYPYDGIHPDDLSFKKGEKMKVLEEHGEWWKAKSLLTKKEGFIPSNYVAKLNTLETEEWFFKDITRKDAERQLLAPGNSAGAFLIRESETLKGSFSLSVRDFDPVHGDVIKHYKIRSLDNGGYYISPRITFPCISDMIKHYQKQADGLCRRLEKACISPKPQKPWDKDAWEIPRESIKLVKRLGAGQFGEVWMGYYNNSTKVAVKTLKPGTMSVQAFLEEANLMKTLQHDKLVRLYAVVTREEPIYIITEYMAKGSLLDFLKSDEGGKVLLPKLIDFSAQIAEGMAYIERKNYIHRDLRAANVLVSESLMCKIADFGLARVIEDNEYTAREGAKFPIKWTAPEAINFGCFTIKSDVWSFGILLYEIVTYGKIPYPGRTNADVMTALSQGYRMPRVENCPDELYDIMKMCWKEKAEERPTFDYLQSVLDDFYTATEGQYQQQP
Description: Lyn enzyme activity is measured using the IMAP (immobilized metal ion affinity-based fluorescence polarization) assay as outlined below.
Lyn enzyme (Millipore catalog#14-510), is diluted to 250 mU/mL in KR buffer (10 mM Tris-HCl, 10 mM MgCl2, 0.01% Tween-20, 0.05% NaN3, 1 mM DTT, 2 mM MnCl2, pH 7.2). Serial dilution log 10 from 2 mM to 63.2 nM of test compounds are made in 100% DMSO. The dilutions in DMSO are then diluted 50-fold in KR-buffer of which 5 μl is used in the assay, leading to a final compound concentration range in the assay from 10 μM to 0.316 nM. 5 μL/well of test compound in KR buffer (final DMSO concentration in the assay is 1%) is mixed with 5 μl/well of 250 mU/mL Lyn enzyme (final concentration in the assay is 62.5 mU/mL). Test compounds and Lyn enzyme are pre-incubated 60 minutes at room temperature, before adding 5 μL/well of 400 nM Fluorescin labeled substrate peptide (Blk/Lyntide substrate, e.g. #R7188/#R7233, Molecular Devices) in KR-buffer. Final peptide substrate concentration in assay is 100 nM. The kinase assay is started by adding 5 μL/well of 8 μM ATP in KR-buffer (final ATP concentration is 2 μM ATP, Km ATP in Lyn IMAP assay). Following incubation for 2 h at room temperature the enzyme reaction is stopped by adding 40 μL/well IMAP Progressive Binding Solution (according to suppliers (Molecular Devices) protocol using 75% 1× buffer A and 25% 1× buffer B with 1:600 Progressive Binding Solution). After 60 min incubation at room temperature in the dark the FP signal is read. Fluorescence at 535 nm is measured using parallel and perpendicular filters to determine differences in rotation due to binding of the phosphorylated substrate peptide to the beads. Values are calculated as percentage of the difference in readout (ΔmPi) of the controls with and without ATP. EC50 values are determined by curve fitting of the experimental results using Activity Base.

Measured: EC50

T1 sequence (P06239 whole entry): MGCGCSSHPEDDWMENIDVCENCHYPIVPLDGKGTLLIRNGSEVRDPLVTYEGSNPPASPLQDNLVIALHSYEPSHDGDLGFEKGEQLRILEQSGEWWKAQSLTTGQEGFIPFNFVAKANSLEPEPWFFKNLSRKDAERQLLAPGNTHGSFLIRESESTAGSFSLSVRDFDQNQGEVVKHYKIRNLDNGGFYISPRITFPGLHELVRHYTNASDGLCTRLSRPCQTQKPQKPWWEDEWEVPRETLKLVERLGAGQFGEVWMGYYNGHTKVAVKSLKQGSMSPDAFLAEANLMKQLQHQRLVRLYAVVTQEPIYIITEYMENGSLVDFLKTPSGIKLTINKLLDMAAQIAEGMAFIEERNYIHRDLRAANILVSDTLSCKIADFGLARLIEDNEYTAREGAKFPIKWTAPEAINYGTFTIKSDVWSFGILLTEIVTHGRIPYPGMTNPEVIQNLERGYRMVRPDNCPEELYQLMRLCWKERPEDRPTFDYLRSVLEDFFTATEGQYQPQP

CCCc1ccnc(NC(=O)c2ccc(-c3nc([C@H](C)NC(=O)/C=C/CN(C)C)n4ccnc(C)c34)cc2)c1 [Example 28, (S,E)-4-(3-(1-(4-(dimethylamino)but-2-enamido)ethyl)-8-methylimidazo[1,5-a]pyrazin-1-yl)-N-(4-propylpyridin-2-yl)benzamide]
≥ 1000 nM: all assays above

C=CC(=O)N[C@@H](C)c1nc(-c2ccc(C(=O)Nc3cc(CCC)ccn3)cc2)c2c(C)nccn12 [Example 23, (S)-4-(3-(1-acrylamidoethyl)-8-methylimidazo[1,5-a]pyrazin-1-yl)-N-(4-propylpyridin-2-yl)benzamide]
≥ 1000 nM: all assays above

Cc1nccn2c([C@@H]3CCCCN3C(=O)/C=C/CN3CCCC3)nc(-c3ccc(C(=O)Nc4cc(C(F)(F)F)ccn4)cc3)c12 [Example 21, (S,E)-4-(8-methyl-3-(1-(4-(pyrrolidin-1-yl)but-2-enoyl)piperidin-2-yl)imidazo[1,5-a]pyrazin-1-yl)-N-(4-(trifluoromethyl)pyridin-2-yl)benzamide]
≥ 1000 nM: all assays above

CC#CC(=O)N1CCCC[C@H]1c1nc(-c2ccc(C(=O)Nc3cc(C(F)(F)F)ccn3)cc2)c2c(C)nccn12 [Example 29, (S)-4-(3-(1-but-2-ynoylpiperidin-2-yl)-8-methylimidazo[1,5-a]pyrazin-1-yl)-N-(4-(trifluoromethyl)pyridin-2-yl)benzamide]
≥ 1000 nM: all assays above

C=CC(=O)N1CCCC[C@H]1c1nc(-c2ccc(C(=O)Nc3cc(C(F)(F)F)ccn3)cc2)c2c(C)nccn12 [Example 27, (S)-4-(3-(1-acryloylpiperidin-2-yl)-8-methylimidazo[1,5-a]pyrazin-1-yl)-N-(4-(trifluoromethyl)pyridin-2-yl)benzamide]
≥ 1000 nM: all assays above

CC#CC(=O)N[C@@H](C)c1nc(-c2ccc(C(=O)Nc3cc(C(F)(F)F)ccn3)cc2)c2c(C)nccn12 [Example 7, (S)-4-(3-(1-But-2-ynamidoethyl)-8-methylimidazo[1,5-a]pyrazin-1-yl)-N-(4-(trifluoromethyl)pyridin-2-yl)benzamide]
≥ 1000 nM: all assays above

C=CC(=O)N1CCCC[C@H]1c1nc(-c2ccc(C(=O)Nc3cc(CCC)ccn3)cc2)c2c(C)nccn12 [Example 2, (S)-4-(3-(1-Acryloylpiperidin-2-yl)-8-methylimidazo[1,5-a]pyrazin-1-yl)-N-(4-propylpyridin-2-yl)benzamide]
≥ 1000 nM: all assays above

Cc1nccn2c([C@@H]3CCCN3C(=O)/C=C/CN3CCCC3)nc(-c3ccc(C(=O)Nc4ccccn4)cc3)c12 [Example 25, (S,E)-4-(8-methyl-3-(1-(4-(pyrrolidin-1-yl)but-2-enoyl)pyrrolidin-2-yl)imidazo[1,5-a]pyrazin-1-yl)-N-(pyridin-2-yl)benzamide]
≥ 1000 nM: all assays above

C=CC(=O)N1CCC[C@H]1c1nc(-c2ccc(C(=O)Nc3cc(CCC)ccn3)cc2)c2c(C)nccn12 [Example 9, (S)-4-(3-(1-Acryloylpyrrolidin-2-yl)-8-methylimidazo[1,5-a]pyrazin-1-yl)-N-(4-propylpyridin-2-yl)benzamide]
≥ 1000 nM: all assays above

CC#CC(=O)N1CCCC[C@H]1c1nc(-c2ccc(C(=O)Nc3cc(CCC)ccn3)cc2)c2c(C)nccn12 [Example 22, (S)-4-(3-(1-but-2-ynoylpiperidin-2-yl)-8-methylimidazo[1,5-a]pyrazin-1-yl)-N-(4-propylpyridin-2-yl)benzamide]
≥ 1000 nM: all assays above

CCCc1ccnc(NC(=O)c2ccc(-c3nc([C@H](C)NC(=O)/C=C/COC)n4ccnc(C)c34)cc2)c1 [Example 36, (S,E)-4-(3-(1-(4-methoxybut-2-enamido)ethyl)-8-methylimidazo[1,5-a]pyrazin-1-yl)-N-(4-propylpyridin-2-yl)benzamide]
≥ 1000 nM: all assays above

C=CC(=O)N1CCC[C@H]1c1nc(-c2ccc(C(=O)Nc3cc(C(F)(F)F)ccn3)cc2)c2c(C)nccn12 [Example 10, (S)-4-(3-(1-Acryloylpyrrolidin-2-yl)-8-methylimidazo[1,5-a]pyrazin-1-yl)-N-(4-(trifluoromethyl)pyridin-2-yl)benzamide]
≥ 1000 nM: all assays above

C=CC(=O)N1CCC[C@H]1c1nc(-c2ccc(C(=O)Nc3cc(C#N)ccn3)cc2)c2c(C)nccn12 [Example 13, (S)-4-(3-(1-Acryloylpyrrolidin-2-yl)-8-methylimidazo[1,5-a]pyrazin-1-yl)-N-(4-cyanopyridin-2-yl)benzamide]
≥ 1000 nM: all assays above
